The values below come from ChEMBL document CHEMBL1150124, “Steroidal and pregnane glycosides from the rhizomes of Tacca chantrieri” (J Nat Prod, 2002).

Active and inactive are the calls of the source. The calls are words filed in the database; no cut-off is given here.

The subject of the test is HL-60. The test can be described thus: Cytotoxicity against human HL60 cells at 10 ug/mL. The format is functional, cell-based.
As for `CO[C@]1(CC[C@H](C)CO[C@@H]2O[C@H](CO[C@@H]3O[C@H](CO)[C@@H](O)[C@H](O)[C@H]3O)[C@@H](O)[C@H](O)[C@H]2O)O[C@H]2C[C@H]3[C@@H]4CC=C5C[C@@H](O[C@@H]6O[C@H](CO)[C@@H](O)[C@H](O[C@@H]7O[C@@H](C)[C@H](O[C@@H]8O[C@H](CO)[C@@H](O)[C@H](O)[C@H]8O)[C@@H](O)[C@H]7O)[C@H]6O[C@@H]6O[C@@H](C)[C@H](O)[C@@H](O)[C@H]6O)CC[C@]5(C)[C@H]4CC[C@]3(C)[C@H]2[C@@H]1C`, the outcome was inactive.

As to `CC(=O)OC[C@H]1O[C@@H](O[C@H]2CC[C@@]3(C)C(=CC[C@H]4[C@@H]5C[C@@H]6OC(CC[C@H](C)CO[C@@H]7O[C@H](CO)[C@@H](O)[C@H](O)[C@H]7O)=C(C)[C@@H]6[C@@]5(C)CC[C@@H]43)C2)[C@H](O[C@@H]2O[C@@H](C)[C@H](O)[C@@H](O)[C@H]2O)[C@@H](O[C@@H]2O[C@@H](C)[C@H](O[C@@H]3O[C@H](CO)[C@@H](O)[C@H](O)[C@H]3O)[C@@H](O)[C@H]2O)[C@@H]1O`, the result was inactive.

For the molecule `CO[C@]1(CC[C@H](C)CO[C@@H]2O[C@H](CO)[C@@H](O)[C@H](O)[C@H]2O)O[C@H]2C[C@H]3[C@@H]4CC=C5C[C@@H](O[C@@H]6O[C@H](CO)[C@@H](O)[C@H](O[C@@H]7O[C@@H](C)[C@H](O[C@@H]8O[C@H](CO)[C@@H](O)[C@H](O)[C@H]8O)[C@@H](O)[C@H]7O)[C@H]6O[C@@H]6O[C@@H](C)[C@H](O)[C@@H](O)[C@H]6O)CC[C@]5(C)[C@H]4CC[C@]3(C)[C@H]2[C@@H]1C`, the outcome was inactive.

Consider `CC(=O)[C@H]1[C@@H](OC(=O)CC[C@H](C)CO[C@@H]2O[C@H](CO)[C@@H](O)[C@H](O)[C@H]2O)C[C@H]2[C@@H]3CC=C4C[C@@H](O[C@@H]5O[C@H](CO)[C@@H](O)[C@H](O[C@@H]6O[C@@H](C)[C@H](O[C@@H]7O[C@H](CO)[C@@H](O)[C@H](O)[C@H]7O)[C@@H](O)[C@H]6O)[C@H]5O[C@@H]5O[C@@H](C)[C@H](O)[C@@H](O)[C@H]5O)CC[C@]4(C)[C@H]3CC[C@@]21C`, for which the result was inactive.

With `CO[C@]1(CC[C@H](C)CO[C@@H]2O[C@H](CO)[C@@H](O)[C@H](O)[C@H]2O)O[C@H]2C[C@H]3[C@@H]4CC=C5C[C@@H](O[C@@H]6O[C@H](COC(C)=O)[C@@H](O)[C@H](O[C@@H]7O[C@@H](C)[C@H](O[C@@H]8O[C@H](CO)[C@@H](O)[C@H](O)[C@H]8O)[C@@H](O)[C@H]7O)[C@H]6O[C@@H]6O[C@@H](C)[C@H](O)[C@@H](O)[C@H]6O)CC[C@]5(C)[C@H]4CC[C@]3(C)[C@H]2[C@@H]1C`, the result was inactive.

With `CC(=O)C1=CC[C@H]2[C@@H]3CC=C4C[C@@H](O[C@@H]5O[C@H](CO)[C@@H](O)[C@H](O[C@@H]6O[C@@H](C)[C@H](O[C@@H]7O[C@H](CO)[C@@H](O)[C@H](O)[C@H]7O)[C@@H](O)[C@H]6O)[C@H]5O[C@@H]5O[C@@H](C)[C@H](O)[C@@H](O)[C@H]5O)CC[C@]4(C)[C@H]3CC[C@]12C`, the outcome was inactive.

Consider `CC1=C(CC[C@H](C)CO[C@@H]2O[C@H](CO)[C@@H](O)[C@H](O)[C@H]2O)O[C@H]2C[C@H]3[C@@H]4CC=C5C[C@@H](O[C@@H]6O[C@H](CO)[C@@H](O)[C@H](O[C@@H]7O[C@@H](C)[C@H](O[C@@H]8O[C@H](CO)[C@@H](O)[C@H](O)[C@H]8O)[C@@H](O)[C@H]7O)[C@H]6O[C@@H]6O[C@@H](C)[C@H](O)[C@@H](O)[C@H]6O)CC[C@]5(C)[C@H]4CC[C@]3(C)[C@@H]12`, for which the result was inactive.
